These results are taken from ChEMBL document CHEMBL1132558, “A new single-photon emission computed tomography imaging agent for serotonin transporters: [123I]IDAM, 5-iodo-2-((2-((dimethylamino)methyl)phenyl)thio)benzyl alcohol” (J Med Chem, 1999).

The structures appear in SMILES notation.

In assay [1] the target is Sodium-dependent serotonin transporter (Homo sapiens, UniProt P31645). Briefly: In vitro binding affinity against Serotonin transporter (SERT) from LLC-PK1 cell membranes. The format is cell-based, Sus scrofa.
Chain of Sodium-dependent serotonin transporter (P31645 whole entry): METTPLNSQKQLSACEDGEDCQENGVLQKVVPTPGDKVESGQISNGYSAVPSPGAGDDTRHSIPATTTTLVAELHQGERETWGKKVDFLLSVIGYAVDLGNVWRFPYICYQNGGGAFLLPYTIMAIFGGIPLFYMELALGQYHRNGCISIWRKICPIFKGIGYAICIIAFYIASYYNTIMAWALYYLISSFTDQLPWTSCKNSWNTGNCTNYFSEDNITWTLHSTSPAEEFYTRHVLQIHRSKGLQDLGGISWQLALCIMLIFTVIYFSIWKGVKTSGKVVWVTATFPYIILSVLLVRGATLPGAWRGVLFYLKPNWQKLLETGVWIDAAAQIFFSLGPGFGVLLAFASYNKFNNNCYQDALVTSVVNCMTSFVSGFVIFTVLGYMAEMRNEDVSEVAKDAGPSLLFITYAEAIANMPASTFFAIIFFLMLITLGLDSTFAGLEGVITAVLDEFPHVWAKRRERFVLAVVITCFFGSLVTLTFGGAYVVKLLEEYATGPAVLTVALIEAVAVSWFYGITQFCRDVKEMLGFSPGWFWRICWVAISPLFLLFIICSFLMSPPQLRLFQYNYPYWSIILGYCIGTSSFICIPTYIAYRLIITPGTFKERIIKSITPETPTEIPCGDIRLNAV
Assay [2] deals with T1, Sodium-dependent dopamine transporter (Homo sapiens, UniProt Q01959). Kind of assay: In vitro binding affinity against Dopamine transporter in LLC-PK1 cell membranes. The format is cell-based, Sus scrofa.
T1 sequence (Q01959 whole entry): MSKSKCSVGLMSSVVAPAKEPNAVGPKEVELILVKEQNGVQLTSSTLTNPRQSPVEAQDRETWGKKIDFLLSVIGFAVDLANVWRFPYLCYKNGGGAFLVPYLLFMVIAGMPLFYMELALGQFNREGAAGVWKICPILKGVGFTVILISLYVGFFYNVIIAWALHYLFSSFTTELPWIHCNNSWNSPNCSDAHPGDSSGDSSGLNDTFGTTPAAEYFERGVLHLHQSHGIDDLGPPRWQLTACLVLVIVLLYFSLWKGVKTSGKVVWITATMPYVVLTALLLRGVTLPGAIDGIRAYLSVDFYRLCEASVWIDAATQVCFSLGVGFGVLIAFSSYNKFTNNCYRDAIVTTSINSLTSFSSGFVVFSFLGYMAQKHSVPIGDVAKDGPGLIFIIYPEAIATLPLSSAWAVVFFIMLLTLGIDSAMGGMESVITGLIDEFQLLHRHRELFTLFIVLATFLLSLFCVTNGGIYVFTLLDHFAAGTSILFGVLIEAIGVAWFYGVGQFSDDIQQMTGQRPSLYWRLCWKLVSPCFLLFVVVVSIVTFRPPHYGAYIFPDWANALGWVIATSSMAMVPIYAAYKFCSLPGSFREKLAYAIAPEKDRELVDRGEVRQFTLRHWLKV
In assay [3] the target is T1, Sodium-dependent dopamine transporter. Kind of assay: Concentration inhibiting Dopamine transporter.
For assay [4], the species on record is Rattus norvegicus. Briefly: Concentration inhibiting 5-HT reuptake in rat brain synaptosomes. The format is functional.
The species entered for assay [5] is Rattus norvegicus. Kind of assay: Concentration inhibiting norepinephrine uptake in rat brain synaptosomes. The format is functional.
For assay [6], the species on record is Rattus norvegicus. Briefly: Concentration inhibiting serotonin uptake in rat brain synaptosomes. The format is functional.

One may read the Ki as a measure of affinity in units of concentration, obtained from inhibition or displacement. Low readings indicate higher affinity, high ones lower affinity. As for `CN(C)Cc1ccccc1Sc1ccc(Br)cc1CO`, the Ki in assay [1] is 0.52 nM; in assay [2] it was greater than 10000 nM.
For `CSc1ccc([C@H]2CN3CCC[C@H]3c3ccccc32)cc1`, the Ki in assay [3] is 23.5 nM; in the assay filed under Rattus norvegicus [4], 0.4 nM; in assay [2], 112 nM.
For `CN(C)Cc1ccccc1Sc1ccc(Cl)cc1CO`, the figures for the Ki in the assay listed under Rattus norvegicus [5] and in the assay listed under Rattus norvegicus [6] were 55 nM and 2.1 nM, respectively.
Take `CN(C)Cc1ccccc1Sc1ccc(I)cc1CO`: the Ki in assay [1] is 0.097 nM; in assay [2] it was greater than 10000 nM.
